Values of other authors in US20220117919A1, “ENHANCED BIOAVAILABILITY OF N-(2,6-BIS(1-METHYLETHYL)PHENYL)-N'-((1-(4-(DIMETHYLAMINO)-PHENYL)CYCLOPENTYL)METHYL)UREA HYDROCHLORIDE” (The Regents of the University of Michigan, priority 2015, published 2022).

System: adrenocortical carcinoma (ACC)
Settings: cited from earlier work

## Clc1ccc(C(c2ccccc2Cl)C(Cl)Cl)cc1 (centres unmarked) [mitotane]
ACC patients that derive a therapeutic benefit
  average delay of disease progression: five
ACC patients
  share of patients with increased progression-free survival: one-quarter to one-third
